Laboratory results reported in publication PMC2670776 (Hepatology (Baltimore, Md.), 2009).
Where a SMILES comes first, the peptide text is derived from it. The star is where a group is joined. Cbz = O=C(OCc1ccccc1)*

Assays:
proteasome [1] = assay: Proteasome chymotrypsin-like; format: cell-based, mouse; conditions: HepB5 cells, 48 hr
H2Kb = H2Kb expression on HepB5 cells; format: cell-based, mouse; conditions: HepB5 cells after 24-hr IFNγ exposure; flow cytometric analysis
SIINFEKL-H2Kb complex [2] = assay: Presentation of […]-H2Kb complex on HepB5 cells; format: cell-based, mouse; conditions: for SIINFEKL-H2Kb presentation compared with controls: IFNγ-pretreated HepB5 cells, 1 hr
proteasome [3] = assay: Hydrolysis of […]-TE by cytosolic fractions of HepB5 cells; format: biochemical, mouse
proteasome [4] = assay: Proteasome activity in primary hepatocytes
SIINFEKL-H2Kb complex [5] = assay: Presentation of SIINFEKL-H2Kb complex on primary hepatocytes
HepB5 cells = assay: Acetaldehyde level in medium by head space gas chromatography; format: cell-based, mouse; conditions: HepB5 cells incubated with ethanol and DAS, 20 μM; culture medium
ADH = ADH (Mus musculus, UniProt P00329); conditions: HepB5 cells exposed to ethanol for 48 hr; total cell lysates
STAT1 [6] = conditions: HepB5 cells, ethanol treatment then IFNγ; data not shown
STAT1 [7] = conditions: HepB5 cells, ethanol 48 hr then IFNγ 1 hr; nuclear extracts; 3 experiments
LMP2 = conditions: HepB5 cells, IFNγ 10 ng/ml and ethanol 50 mM, 48 hr; normalized to β-actin
PA28 = conditions: HepB5 cells, IFNγ 10 ng/ml and ethanol 50 mM, 48 hr; normalized to β-actin
[8] = 50 mM ethanol 18 hr, without IFNγ

Chain of ADH (P00329 whole entry): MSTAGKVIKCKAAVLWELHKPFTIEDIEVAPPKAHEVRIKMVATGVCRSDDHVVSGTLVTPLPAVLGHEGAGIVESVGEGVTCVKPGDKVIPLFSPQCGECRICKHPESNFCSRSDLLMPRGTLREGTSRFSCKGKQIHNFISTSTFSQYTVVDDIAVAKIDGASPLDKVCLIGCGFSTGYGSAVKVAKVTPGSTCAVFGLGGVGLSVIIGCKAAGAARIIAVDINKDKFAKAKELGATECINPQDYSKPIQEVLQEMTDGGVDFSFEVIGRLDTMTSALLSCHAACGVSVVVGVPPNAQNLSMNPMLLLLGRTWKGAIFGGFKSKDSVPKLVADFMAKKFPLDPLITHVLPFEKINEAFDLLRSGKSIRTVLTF

## IFNγ: recombinant interferon gamma, used at 10 ng/ml
Proteasome [1]; IFNγ 10 ng/ml
  Effect on proteasome activity: induced proteasome activity
H2Kb
  H2Kb positive cells: about 90%

## C[C@H]1CCC/C=C/[C@@H]2C[C@H](O)C[C@H]2[C@H](O)/C=C/C(=O)O1 [brefeldin A]
SIINFEKL-H2Kb complex [2]; brefeldin A 5 μg/ml
  SIINFEKL-H2Kb presentation compared with controls: suppressed

## CC(C)C[C@@H](C=O)NC(=O)[C@H](CC(C)C)NC(=O)[C@H](CC(C)C)NC(=O)OCc1ccccc1 [MG132] (Cbz-Leu-Leu-Leu-aldehyde)
Proteasome [3]; cytosols of HepB5 cells with MG132
  SIINFEKL-TE hydrolysis: completely blocked
SIINFEKL-H2Kb complex [2]; MG132 20 μM
  SIINFEKL-H2Kb presentation compared with controls: suppressed

## Cc1cn[nH]c1 [4MP, 4-methylpyrazole, reference compound]
Proteasome [1]; 50 mM ethanol + 4MP 2 mM
  Cht-L proteasome activity, cells incubated with ethanol and 4MP: unaffected
Proteasome [3]; cytosols of HepB5 cells incubated with 50 mM ethanol and 4MP 2 mM
  Inhibitory effect of ethanol on peptide cleavage after ethanol and 4MP: partially reversed
SIINFEKL-H2Kb complex [2]; IFNγ-treated HepB5 cells, 50 mM ethanol with 4 MP in culture medium
  Suppressive effects of ethanol on SIINFEKL-H2Kb presentation: blocked
Proteasome [4]; 50 mM ethanol + 4MP 2 mM
  Ethanol-elicited reduction in proteasome activity: partially prevented
SIINFEKL-H2Kb complex [5]; 50 mM ethanol + 4MP 2 mM
  Ethanol-elicited reduction in SIINFEKL-H2Kb presentation: partially prevented

## COC1=C2C[C@@H](C)C[C@H](OC)[C@H](O)[C@@H](C)/C=C(\C)[C@H](OC(N)=O)[C@@H](OC)/C=C\C=C(/C)C(=O)NC(=CC1=O)C2=O [geldanamycin]
SIINFEKL-H2Kb complex [2]; geldanamycin 5 μM
  SIINFEKL-H2Kb presentation compared with controls: suppressed

## C=CCSCC=C [DAS, diallyl sulfide]
HepB5 cells
  Ach (acetaldehyde) levels: suppressed

## CCO [ethanol]
Proteasome [1]; 50 mM ethanol + IFNγ 10 ng/ml
  Effect on IFNγ induction of proteasome activity: blocked this induction
Proteasome [1]; ethanol 50 mM, 3 experiments
  Cht-L proteasome activity reduced by: 40%
Proteasome [3]; cytosols of IFNγ-treated HepB5 cells exposed to 50 mM ethanol
  Peptide hydrolysis in IFNγ-treated cells: suppressed
ADH
  ADH activity: unchanged
STAT1 [6]
  STAT1 phosphorylation: no changes
STAT1 [7]
  STAT1 attachment to DNA: suppressed
LMP2
  Induction of immunoproteasome subunit LMP2 by IFNγ: prevented the induction
PA28
  Induction of 20S proteasome activator PA28 expression by IFNγ: prevented the induction
Proteasome [4]; [8]
  Proteasome activity: decreased
Proteasome [4]; IFNγ 10 ng/ml, 50 mM ethanol
  Proteasome function in IFNγ-pretreated hepatocytes: down-regulated
SIINFEKL-H2Kb complex [5]; [8]
  Presentation of SIINFEKL-H2Kb complexes: decreased
SIINFEKL-H2Kb complex [5]; IFNγ 10 ng/ml, 50 mM ethanol
  Antigen presentation in IFNγ-pretreated hepatocytes: down-regulated

## catalase
SIINFEKL-H2Kb complex [2]; IFNγ-treated HepB5 cells, co-treatment with ethanol and catalase
  SIINFEKL-H2Kb presentation restored: up to 80%
